Test results from ChEMBL document CHEMBL3991601, “The target landscape of clinical kinase drugs” (Science, 2017).
Active and inactive are the calls of the source.

Key:
[1] = target: DNA topoisomerase 2-alpha (Homo sapiens, UniProt P11388)
[2] = target: T1, ATP-dependent 6-phosphofructokinase, platelet type (Homo sapiens, UniProt Q01813)
T1 sequence (Q01813 whole entry): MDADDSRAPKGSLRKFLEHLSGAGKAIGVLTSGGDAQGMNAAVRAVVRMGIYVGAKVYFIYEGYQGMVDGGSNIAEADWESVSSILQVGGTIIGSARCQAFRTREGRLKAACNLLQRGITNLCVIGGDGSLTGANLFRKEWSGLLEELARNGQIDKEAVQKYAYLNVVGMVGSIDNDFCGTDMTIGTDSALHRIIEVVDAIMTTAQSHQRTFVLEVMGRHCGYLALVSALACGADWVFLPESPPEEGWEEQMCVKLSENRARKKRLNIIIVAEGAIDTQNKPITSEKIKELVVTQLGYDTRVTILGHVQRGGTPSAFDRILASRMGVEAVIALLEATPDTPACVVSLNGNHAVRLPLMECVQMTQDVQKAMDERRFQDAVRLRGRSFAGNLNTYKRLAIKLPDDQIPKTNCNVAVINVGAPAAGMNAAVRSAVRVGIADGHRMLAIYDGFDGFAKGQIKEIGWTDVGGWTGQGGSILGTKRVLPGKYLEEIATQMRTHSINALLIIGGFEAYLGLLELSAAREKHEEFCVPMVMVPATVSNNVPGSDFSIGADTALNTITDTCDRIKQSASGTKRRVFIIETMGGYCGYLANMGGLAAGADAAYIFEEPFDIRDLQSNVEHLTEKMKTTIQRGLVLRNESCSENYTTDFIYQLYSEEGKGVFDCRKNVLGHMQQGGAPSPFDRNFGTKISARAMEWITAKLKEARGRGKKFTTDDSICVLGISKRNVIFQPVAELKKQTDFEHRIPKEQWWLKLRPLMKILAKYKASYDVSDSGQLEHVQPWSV

[3] = target: Mitogen-activated protein kinase 11 (Homo sapiens, UniProt Q15759)
[4] = target: GTP-binding protein 4 (Homo sapiens, UniProt Q9BZE4)
[5] = target: Tyrosine-protein kinase SYK (Homo sapiens, UniProt P43405)
[6] = target: T2, Structural maintenance of chromosomes protein 1A (Homo sapiens, UniProt Q14683)
T2 sequence (Q14683 whole entry): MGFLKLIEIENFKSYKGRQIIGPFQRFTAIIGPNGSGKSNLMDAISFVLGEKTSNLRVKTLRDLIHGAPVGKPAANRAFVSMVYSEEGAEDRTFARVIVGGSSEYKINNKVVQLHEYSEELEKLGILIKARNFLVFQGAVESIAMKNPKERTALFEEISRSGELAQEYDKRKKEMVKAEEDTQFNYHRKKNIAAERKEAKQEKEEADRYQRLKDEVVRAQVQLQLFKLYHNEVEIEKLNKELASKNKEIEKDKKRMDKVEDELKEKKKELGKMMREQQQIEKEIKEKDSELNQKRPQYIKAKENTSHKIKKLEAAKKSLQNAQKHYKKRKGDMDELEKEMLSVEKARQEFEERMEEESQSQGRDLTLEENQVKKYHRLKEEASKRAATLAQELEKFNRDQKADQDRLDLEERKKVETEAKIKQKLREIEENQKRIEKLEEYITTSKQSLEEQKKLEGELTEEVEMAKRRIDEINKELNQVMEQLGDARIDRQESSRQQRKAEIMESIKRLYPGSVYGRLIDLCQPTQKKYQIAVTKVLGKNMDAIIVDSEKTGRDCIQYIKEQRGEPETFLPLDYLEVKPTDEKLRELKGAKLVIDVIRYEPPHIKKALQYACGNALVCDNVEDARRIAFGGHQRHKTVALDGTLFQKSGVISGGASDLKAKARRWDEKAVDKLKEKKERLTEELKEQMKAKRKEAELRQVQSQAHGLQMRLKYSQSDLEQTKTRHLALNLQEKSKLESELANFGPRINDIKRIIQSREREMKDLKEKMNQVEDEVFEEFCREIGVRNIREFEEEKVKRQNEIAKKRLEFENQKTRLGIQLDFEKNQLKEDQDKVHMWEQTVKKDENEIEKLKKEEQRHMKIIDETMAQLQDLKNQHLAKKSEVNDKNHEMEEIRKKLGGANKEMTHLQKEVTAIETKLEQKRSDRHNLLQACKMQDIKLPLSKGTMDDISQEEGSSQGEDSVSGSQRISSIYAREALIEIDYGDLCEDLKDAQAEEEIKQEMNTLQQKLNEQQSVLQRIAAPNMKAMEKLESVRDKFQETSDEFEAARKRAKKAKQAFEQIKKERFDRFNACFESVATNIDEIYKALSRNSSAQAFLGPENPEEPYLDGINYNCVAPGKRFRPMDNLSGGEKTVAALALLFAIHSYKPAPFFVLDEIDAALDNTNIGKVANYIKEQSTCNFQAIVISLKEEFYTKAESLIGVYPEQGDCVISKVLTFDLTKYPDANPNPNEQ

[7] = target: Mitogen-activated protein kinase 9 (Homo sapiens, UniProt P45984)
[8] = target: Mitogen-activated protein kinase 3 (Homo sapiens, UniProt P27361)
[9] = target: Cyclin-dependent kinase 3 (Homo sapiens, UniProt Q00526)
[10] = target: Serine/threonine-protein kinase 26 (Homo sapiens, UniProt Q9P289)
[11] = target: cAMP-dependent protein kinase catalytic subunit gamma (Homo sapiens, UniProt P22612)
[12] = target: Receptor-interacting serine/threonine-protein kinase 2 (Homo sapiens, UniProt O43353)
[13] = target: Ras-related protein Rab-6A (Homo sapiens, UniProt P20340)
[14] = target: Serine/threonine-protein kinase SIK2 (Homo sapiens, UniProt Q9H0K1)
Note: in the data inactive means no Kd found up to 30 µM.

Chain of Mitogen-activated protein kinase 3 (P27361 whole entry): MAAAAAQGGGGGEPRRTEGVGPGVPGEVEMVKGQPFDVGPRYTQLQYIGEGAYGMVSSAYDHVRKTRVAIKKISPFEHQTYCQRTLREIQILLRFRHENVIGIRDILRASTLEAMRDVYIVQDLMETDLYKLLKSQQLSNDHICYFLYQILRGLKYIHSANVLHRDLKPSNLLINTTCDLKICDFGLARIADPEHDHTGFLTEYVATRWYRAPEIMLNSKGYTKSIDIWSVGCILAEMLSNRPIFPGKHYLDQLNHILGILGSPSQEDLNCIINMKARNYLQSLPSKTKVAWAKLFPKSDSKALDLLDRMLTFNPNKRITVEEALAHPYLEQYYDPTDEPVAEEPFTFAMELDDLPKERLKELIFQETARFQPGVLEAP
Chain of Serine/threonine-protein kinase SIK2 (Q9H0K1 whole entry): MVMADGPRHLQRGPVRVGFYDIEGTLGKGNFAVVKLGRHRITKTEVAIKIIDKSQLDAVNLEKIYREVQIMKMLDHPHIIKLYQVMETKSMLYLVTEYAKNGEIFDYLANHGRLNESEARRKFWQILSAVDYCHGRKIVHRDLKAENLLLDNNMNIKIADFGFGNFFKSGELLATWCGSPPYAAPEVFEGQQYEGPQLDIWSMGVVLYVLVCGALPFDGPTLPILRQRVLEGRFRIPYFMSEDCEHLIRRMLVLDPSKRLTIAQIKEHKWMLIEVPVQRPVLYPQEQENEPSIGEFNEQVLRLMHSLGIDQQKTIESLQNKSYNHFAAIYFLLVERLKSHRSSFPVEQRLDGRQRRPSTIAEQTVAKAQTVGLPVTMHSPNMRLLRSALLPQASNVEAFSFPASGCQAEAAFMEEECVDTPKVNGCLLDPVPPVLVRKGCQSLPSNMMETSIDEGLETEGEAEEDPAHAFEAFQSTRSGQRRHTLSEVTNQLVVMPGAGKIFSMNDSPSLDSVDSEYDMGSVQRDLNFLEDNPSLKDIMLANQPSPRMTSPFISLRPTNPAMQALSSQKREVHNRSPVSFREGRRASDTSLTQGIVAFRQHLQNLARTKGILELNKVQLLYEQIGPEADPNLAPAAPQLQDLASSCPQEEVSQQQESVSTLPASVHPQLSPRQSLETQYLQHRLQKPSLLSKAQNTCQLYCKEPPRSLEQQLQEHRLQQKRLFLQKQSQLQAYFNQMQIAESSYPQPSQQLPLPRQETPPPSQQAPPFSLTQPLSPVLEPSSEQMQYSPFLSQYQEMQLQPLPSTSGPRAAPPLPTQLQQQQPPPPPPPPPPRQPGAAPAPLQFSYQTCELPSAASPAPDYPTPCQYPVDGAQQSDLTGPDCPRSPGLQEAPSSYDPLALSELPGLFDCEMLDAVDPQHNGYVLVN
Chain of Serine/threonine-protein kinase 26 (Q9P289 whole entry): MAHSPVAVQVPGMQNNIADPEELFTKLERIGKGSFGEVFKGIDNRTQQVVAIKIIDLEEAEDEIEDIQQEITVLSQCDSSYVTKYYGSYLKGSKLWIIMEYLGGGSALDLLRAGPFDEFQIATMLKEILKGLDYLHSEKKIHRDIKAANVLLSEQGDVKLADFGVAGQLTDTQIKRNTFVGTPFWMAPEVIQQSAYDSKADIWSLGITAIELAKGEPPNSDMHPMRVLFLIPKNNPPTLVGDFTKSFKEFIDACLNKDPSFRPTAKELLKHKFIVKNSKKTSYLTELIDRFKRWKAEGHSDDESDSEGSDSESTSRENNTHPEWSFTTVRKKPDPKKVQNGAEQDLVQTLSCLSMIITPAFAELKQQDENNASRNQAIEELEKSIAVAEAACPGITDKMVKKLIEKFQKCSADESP
Chain of Receptor-interacting serine/threonine-protein kinase 2 (O43353 whole entry): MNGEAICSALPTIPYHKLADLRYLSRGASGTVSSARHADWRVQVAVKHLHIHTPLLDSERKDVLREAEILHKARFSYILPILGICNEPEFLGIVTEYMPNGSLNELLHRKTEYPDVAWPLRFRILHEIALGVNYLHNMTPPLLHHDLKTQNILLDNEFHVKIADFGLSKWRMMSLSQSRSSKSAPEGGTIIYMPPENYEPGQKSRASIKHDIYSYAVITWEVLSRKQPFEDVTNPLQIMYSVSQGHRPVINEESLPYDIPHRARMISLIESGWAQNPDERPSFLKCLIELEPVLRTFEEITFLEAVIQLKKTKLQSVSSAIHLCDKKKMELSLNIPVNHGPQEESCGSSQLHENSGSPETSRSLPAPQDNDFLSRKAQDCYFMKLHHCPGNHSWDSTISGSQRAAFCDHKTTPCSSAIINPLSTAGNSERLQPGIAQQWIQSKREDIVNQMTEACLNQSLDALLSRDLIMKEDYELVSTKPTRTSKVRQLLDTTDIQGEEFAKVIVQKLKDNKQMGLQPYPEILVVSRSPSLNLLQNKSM
Chain of DNA topoisomerase 2-alpha (P11388 whole entry): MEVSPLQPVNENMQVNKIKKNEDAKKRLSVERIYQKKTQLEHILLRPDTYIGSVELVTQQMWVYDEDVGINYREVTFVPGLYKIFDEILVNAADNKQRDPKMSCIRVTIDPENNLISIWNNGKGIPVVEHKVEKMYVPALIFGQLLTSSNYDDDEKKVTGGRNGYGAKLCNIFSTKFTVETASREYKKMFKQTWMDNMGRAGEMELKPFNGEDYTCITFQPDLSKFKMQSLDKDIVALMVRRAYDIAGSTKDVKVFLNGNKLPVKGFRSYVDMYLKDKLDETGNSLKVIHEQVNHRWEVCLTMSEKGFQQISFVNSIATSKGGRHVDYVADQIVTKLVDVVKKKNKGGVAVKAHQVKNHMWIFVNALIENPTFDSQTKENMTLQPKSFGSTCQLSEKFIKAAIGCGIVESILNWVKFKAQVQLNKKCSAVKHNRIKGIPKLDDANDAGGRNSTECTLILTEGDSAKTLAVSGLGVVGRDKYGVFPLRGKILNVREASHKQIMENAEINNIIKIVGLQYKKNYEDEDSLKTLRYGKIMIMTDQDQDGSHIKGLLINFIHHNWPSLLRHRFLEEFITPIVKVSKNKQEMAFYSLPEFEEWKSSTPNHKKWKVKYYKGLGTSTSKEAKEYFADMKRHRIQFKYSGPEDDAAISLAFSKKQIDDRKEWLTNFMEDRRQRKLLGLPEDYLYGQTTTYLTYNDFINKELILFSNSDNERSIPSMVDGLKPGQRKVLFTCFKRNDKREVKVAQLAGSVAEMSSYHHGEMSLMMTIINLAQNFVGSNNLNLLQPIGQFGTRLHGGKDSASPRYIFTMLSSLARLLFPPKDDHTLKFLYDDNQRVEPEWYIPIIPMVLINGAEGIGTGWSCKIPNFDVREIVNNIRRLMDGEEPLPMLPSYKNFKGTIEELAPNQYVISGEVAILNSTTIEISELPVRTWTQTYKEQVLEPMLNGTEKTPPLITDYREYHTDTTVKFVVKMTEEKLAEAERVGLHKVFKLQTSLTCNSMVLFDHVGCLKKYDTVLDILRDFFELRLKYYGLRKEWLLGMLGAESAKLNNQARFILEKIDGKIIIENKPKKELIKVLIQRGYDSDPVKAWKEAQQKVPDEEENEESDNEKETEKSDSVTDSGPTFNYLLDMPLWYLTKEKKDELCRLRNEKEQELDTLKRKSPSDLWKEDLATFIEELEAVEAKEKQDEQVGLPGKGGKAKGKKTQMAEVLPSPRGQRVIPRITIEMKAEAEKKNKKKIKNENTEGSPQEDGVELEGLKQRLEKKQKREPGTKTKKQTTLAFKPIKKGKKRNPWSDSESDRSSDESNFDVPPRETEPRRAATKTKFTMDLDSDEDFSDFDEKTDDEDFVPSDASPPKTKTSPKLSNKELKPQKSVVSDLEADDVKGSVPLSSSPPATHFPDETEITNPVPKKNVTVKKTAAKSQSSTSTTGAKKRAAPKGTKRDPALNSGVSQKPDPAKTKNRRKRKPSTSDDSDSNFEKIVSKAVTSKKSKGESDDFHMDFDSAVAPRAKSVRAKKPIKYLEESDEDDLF
Chain of Mitogen-activated protein kinase 11 (Q15759 whole entry): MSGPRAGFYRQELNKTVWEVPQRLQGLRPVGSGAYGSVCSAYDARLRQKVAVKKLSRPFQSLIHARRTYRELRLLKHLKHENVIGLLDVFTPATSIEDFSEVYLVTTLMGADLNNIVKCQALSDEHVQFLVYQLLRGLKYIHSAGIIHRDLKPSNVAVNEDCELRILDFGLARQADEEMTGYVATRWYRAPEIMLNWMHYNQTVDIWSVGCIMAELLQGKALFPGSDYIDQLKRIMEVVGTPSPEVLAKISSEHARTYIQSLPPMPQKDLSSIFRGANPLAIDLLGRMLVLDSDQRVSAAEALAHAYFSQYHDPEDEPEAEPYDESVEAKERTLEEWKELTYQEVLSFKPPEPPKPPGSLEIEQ
Chain of Mitogen-activated protein kinase 9 (P45984 whole entry): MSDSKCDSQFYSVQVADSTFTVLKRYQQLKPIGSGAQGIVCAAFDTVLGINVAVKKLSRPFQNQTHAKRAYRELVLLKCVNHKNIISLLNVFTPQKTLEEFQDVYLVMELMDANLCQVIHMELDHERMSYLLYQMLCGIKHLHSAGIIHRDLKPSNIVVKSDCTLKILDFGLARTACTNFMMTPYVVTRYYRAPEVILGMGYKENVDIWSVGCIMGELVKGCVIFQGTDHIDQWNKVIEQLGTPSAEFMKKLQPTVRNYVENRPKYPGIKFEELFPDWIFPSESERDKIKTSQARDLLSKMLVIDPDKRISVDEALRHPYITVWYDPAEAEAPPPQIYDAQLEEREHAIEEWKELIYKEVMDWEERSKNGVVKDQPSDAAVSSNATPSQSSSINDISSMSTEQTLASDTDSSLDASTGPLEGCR
Chain of cAMP-dependent protein kinase catalytic subunit gamma (P22612 whole entry): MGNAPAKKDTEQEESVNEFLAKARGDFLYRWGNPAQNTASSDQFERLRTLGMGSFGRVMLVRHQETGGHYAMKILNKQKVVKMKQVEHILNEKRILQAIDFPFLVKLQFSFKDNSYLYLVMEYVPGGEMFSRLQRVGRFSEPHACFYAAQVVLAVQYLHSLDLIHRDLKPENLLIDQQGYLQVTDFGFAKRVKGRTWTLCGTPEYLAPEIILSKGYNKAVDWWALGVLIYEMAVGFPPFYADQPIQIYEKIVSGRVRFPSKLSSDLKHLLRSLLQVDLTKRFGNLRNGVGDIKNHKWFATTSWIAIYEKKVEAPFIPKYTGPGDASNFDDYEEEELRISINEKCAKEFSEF

Kd [1] | Kd [2] | Kd [3] | Kd [4] | Kd [5] | Kd [6] | Kd [7] | Kd [8] | Kd [9] | Kd [10] | Kd [11] | Kd [12] | Kd [13] | Kd [14] | SMILES
> 30 µM (inactive) | > 30 µM (inactive) | > 30 µM (inactive) | > 30 µM (inactive) | > 30 µM (inactive) | > 30 µM (inactive) | 0.915 µM (active) | > 30 µM (inactive) | > 30 µM (inactive) | > 30 µM (inactive) | > 30 µM (inactive) | 0.323 µM (active) | > 30 µM (inactive) | > 30 µM (inactive) | COC(=O)N[C@@H](C)CNc1nccc(-c2cn(C(C)C)nc2-c2cc(Cl)cc(NS(C)(=O)=O)c2F)n1 [ENCORAFENIB]
> 30 µM (inactive) | > 30 µM (inactive) | > 30 µM (inactive) | – | > 30 µM (inactive) | > 30 µM (inactive) | > 30 µM (inactive) | > 30 µM (inactive) | > 30 µM (inactive) | > 30 µM (inactive) | > 30 µM (inactive) | > 30 µM (inactive) | > 30 µM (inactive) | > 30 µM (inactive) | C[C@@H](Nc1cc(F)cc(F)c1)c1cc(C(=O)N(C)C)cc2c(=O)cc(N3CCOCC3)oc12 [AZD-8186]
> 30 µM (inactive) | > 30 µM (inactive) | > 30 µM (inactive) | 0.009 µM | > 30 µM (inactive) | – | > 30 µM (inactive) | > 30 µM (inactive) | > 30 µM (inactive) | > 30 µM (inactive) | > 30 µM (inactive) | > 30 µM (inactive) | > 30 µM (inactive) | 0.123 µM (active) | COc1cc(N2CCC(N3CCN(C)CC3)CC2)ccc1Nc1ncnc(Nc2ccccc2S(=O)(=O)C(C)C)n1 [ASP-3026]
> 30 µM (inactive) | > 30 µM (inactive) | – | > 30 µM (inactive) | > 30 µM (inactive) | > 30 µM (inactive) | > 30 µM (inactive) | > 30 µM (inactive) | > 30 µM (inactive) | > 30 µM (inactive) | > 30 µM (inactive) | – | > 30 µM (inactive) | > 30 µM (inactive) | COc1cc2nccc(Oc3ccc(NC(=O)Nc4cc(C)on4)c(Cl)c3)c2cc1OC [TIVOZANIB]
> 30 µM (inactive) | > 30 µM (inactive) | – | > 30 µM (inactive) | > 30 µM (inactive) | > 30 µM (inactive) | > 30 µM (inactive) | > 30 µM (inactive) | > 30 µM (inactive) | > 30 µM (inactive) | 49.3 µM (active) | > 30 µM (inactive) | > 30 µM (inactive) | > 30 µM (inactive) | Cc1c(F)cc(C(=O)NC2CC2)cc1-c1ccc(C(=O)NCC(C)(C)C)cn1 [LOSMAPIMOD]
> 30 µM (inactive) | > 30 µM (inactive) | > 30 µM (inactive) | – | > 30 µM (inactive) | > 30 µM (inactive) | > 30 µM (inactive) | > 30 µM (inactive) | > 30 µM (inactive) | > 30 µM (inactive) | > 30 µM (inactive) | > 30 µM (inactive) | > 30 µM (inactive) | > 30 µM (inactive) | CCn1c(=O)c(-c2cc[nH]n2)cc2c(C)nc(N)nc21 [VOXTALISIB]

Continued, compound first:

SMILES | Kd [1] | Kd [2] | Kd [3] | Kd [4] | Kd [5] | Kd [6] | Kd [7] | Kd [8] | Kd [9] | Kd [10] | Kd [11] | Kd [12] | Kd [13] | Kd [14]
Cc1cc(-c2cc(O)ccc2Cl)cc2nnc(Nc3ccc(OCCN4CCCC4)cc3)nc12 | > 30 µM (inactive) | > 30 µM (inactive) | > 30 µM (inactive) | > 30 µM (inactive) | > 30 µM (inactive) | > 30 µM (inactive) | > 30 µM (inactive) | > 30 µM (inactive) | > 30 µM (inactive) | > 30 µM (inactive) | > 30 µM (inactive) | 0.0009 µM (active) | > 30 µM (inactive) | 0.002 µM (active)
CCN1CCN(Cc2ccc(-c3cc4c(N[C@H](C)c5ccccc5)ncnc4[nH]3)cc2)CC1 [AEE-788] | > 30 µM (inactive) | > 30 µM (inactive) | > 30 µM (inactive) | > 30 µM (inactive) | > 30 µM (inactive) | > 30 µM (inactive) | > 30 µM (inactive) | > 30 µM (inactive) | > 30 µM (inactive) | > 30 µM (inactive) | > 30 µM (inactive) | > 30 µM (inactive) | > 30 µM (inactive) | 41.8 µM (active)
CC[C@H](Nc1ncnc2[nH]cnc12)c1nc2cccc(F)c2c(=O)n1-c1ccccc1 [IDELALISIB] | > 30 µM (inactive) | > 30 µM (inactive) | > 30 µM (inactive) | > 30 µM (inactive) | > 30 µM (inactive) | > 30 µM (inactive) | > 30 µM (inactive) | > 30 µM (inactive) | > 30 µM (inactive) | > 30 µM (inactive) | > 30 µM (inactive) | > 30 µM (inactive) | > 30 µM (inactive) | > 30 µM (inactive)
CC(=O)Nc1cccc(-n2c(=O)n(C3CC3)c(=O)c3c(Nc4ccc(I)cc4F)n(C)c(=O)c(C)c32)c1 [TRAMETINIB] | > 30 µM (inactive) | > 30 µM (inactive) | > 30 µM (inactive) | > 30 µM (inactive) | > 30 µM (inactive) | > 30 µM (inactive) | > 30 µM (inactive) | > 30 µM (inactive) | > 30 µM (inactive) | > 30 µM (inactive) | > 30 µM (inactive) | > 30 µM (inactive) | > 30 µM (inactive) | > 30 µM (inactive)
CN1N=C(N)c2cn([C@@H]3O[C@H](COP(=O)(O)O)[C@@H](O)[C@H]3O)c3ncnc1c23 [TRICIRIBINE PHOSPHATE] | > 30 µM (inactive) | > 30 µM (inactive) | > 30 µM (inactive) | > 30 µM (inactive) | > 30 µM (inactive) | > 30 µM (inactive) | > 30 µM (inactive) | > 30 µM (inactive) | > 30 µM (inactive) | > 30 µM (inactive) | > 30 µM (inactive) | > 30 µM (inactive) | – | > 30 µM (inactive)
CNC(=O)c1cc(Oc2ccc(NC(=O)Nc3ccc(Cl)c(C(F)(F)F)c3)c(F)c2)ccn1 [REGORAFENIB] | > 30 µM (inactive) | > 30 µM (inactive) | 1.91 µM (active) | > 30 µM (inactive) | > 30 µM (inactive) | > 30 µM (inactive) | > 30 µM (inactive) | > 30 µM (inactive) | > 30 µM (inactive) | > 30 µM (inactive) | > 30 µM (inactive) | – | > 30 µM (inactive) | > 30 µM (inactive)
